The values below come from PubChem BioAssay (NCI).

Test systems include MALME-3M melanoma; TK-10 renal; UO-31 renal; SW-620 colon; SNB-19 CNS; OVCAR-8 ovarian; M14 melanoma; HCC-2998 colon; NCI-H226 lung.
What all share (test): NCI anticancer screen, dose series, 48 h

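1) Cells in 96-well plates. 2) Compound, 48 h, 5 concentrations. 3) Linear interpolation between surrounding doses. 4) Unreached endpoint = highest concentration. GI50 = concentration required for 50% inhibition of growth. TGI is the concentration that stops growth completely.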

As to `N#CC1=C(N)NC(=S)C(C#N)C12Nc1ccccc1S2` (stereo not given), the GI50 is 30.5 µM with MALME-3M melanoma; 14.4 µM in the assay with TK-10 renal; 17.6 µM in the assay with UO-31 renal; 19.1 µM in the assay on SW-620 colon; 25.8 µM in the assay with SNB-19 CNS; 27.2 µM in the assay on OVCAR-8 ovarian. The GI50 in the assay with M14 melanoma was 16.1 µM. Further, the TGI with MALME-3M melanoma is 84 µM; in the assay on TK-10 renal, 46.6 µM; with UO-31 renal, 38.5 µM; in the assay on SW-620 colon, 42.3 µM; in the assay with SNB-19 CNS, greater than 100 µM; in the assay on OVCAR-8 ovarian it was 65 µM. In the assay on M14 melanoma, this molecule had a TGI of 32 µM.

Regarding `CC(=O)[O-].O=[N+]([O-])c1ccc([O-])c(C=NCCN=Cc2cc([N+](=O)[O-])ccc2[O-])c1.[Mn+3]`, the GI50 in the assay on MALME-3M melanoma was greater than 100 µM; in the assay on TK-10 renal, greater than 100 µM; in the assay on UO-31 renal, greater than 100 µM; with SNB-19 CNS, greater than 100 µM; in the assay on HCC-2998 colon, 74.5 µM; in the assay with OVCAR-8 ovarian it was greater than 100 µM. Besides, the GI50 in the assay with NCI-H226 lung is 89.1 µM; with M14 melanoma, greater than 100 µM. The TGI in the assay on MALME-3M melanoma, with TK-10 renal, in the assay on UO-31 renal, with SNB-19 CNS, in the assay on HCC-2998 colon and in the assay with OVCAR-8 ovarian was greater than 100 µM in each case. Besides, the TGI with NCI-H226 lung and in the assay on M14 melanoma was greater than 100 µM in each case.

`COc1cc2c3c(c1OC)/C(=N/OS(=O)(=O)c1ccc(C)cc1)CC3N(S(=O)(=O)c1ccc(C)cc1)CC2` (stereo not given): the TGI in the assay with MALME-3M melanoma, with TK-10 renal, in the assay on UO-31 renal, in the assay on SW-620 colon, with SNB-19 CNS and with HCC-2998 colon was greater than 100 µM throughout. Besides, the TGI with OVCAR-8 ovarian, in the assay on NCI-H226 lung and in the assay on M14 melanoma was greater than 100 µM throughout.

Take `Cc1cc(N(CCC#N)CCC#N)ccc1/C=C/C(=O)Nc1ccccc1Cl`: the TGI in the assay on MALME-3M melanoma, in the assay with TK-10 renal, in the assay on UO-31 renal, with SW-620 colon, in the assay with SNB-19 CNS and in the assay with HCC-2998 colon was greater than 100 µM in each case. In addition, the TGI with OVCAR-8 ovarian, in the assay with NCI-H226 lung and in the assay with M14 melanoma was greater than 100 µM each time.

For the molecule `C=CCN(N=O)C(=O)ON1C(=O)CCC1=O`, the TGI in the assay on MALME-3M melanoma, in the assay with TK-10 renal, in the assay on UO-31 renal, with SW-620 colon, with SNB-19 CNS and in the assay with HCC-2998 colon was greater than 100 µM throughout. The TGI with OVCAR-8 ovarian and in the assay on M14 melanoma was greater than 100 µM throughout.

As for `COC(=O)C1=C(C(=O)OC)N(C(C)C)[C@H]2C(C(=O)OC)=C(C(=O)OC)N(C(C)C)[C@@H]12`, the TGI in the assay with MALME-3M melanoma, in the assay on TK-10 renal, in the assay on UO-31 renal, in the assay with SW-620 colon, with SNB-19 CNS and with OVCAR-8 ovarian was greater than 100 µM throughout. Further, the TGI with NCI-H226 lung and in the assay with M14 melanoma was greater than 100 µM throughout.

`Cc1cc2c(-c3nc4ccccn4c3NC34CC5CC(CC(C5)C3)C4)c(O)c(O)cc2c(O)c1-c1c(C)cc2c(-c3nc4ccccn4c3NC34CC5CC(CC(C5)C3)C4)c(O)c(O)cc2c1O`: the GI50 in the assay with MALME-3M melanoma was 0.574 µM; with TK-10 renal, 0.794 µM; with UO-31 renal it was 0.657 µM; in the assay with SW-620 colon it was 0.881 µM; with SNB-19 CNS it was 0.214 µM; with HCC-2998 colon it was 1.13 µM. For the same molecule, the GI50 with OVCAR-8 ovarian was 0.871 µM; with NCI-H226 lung, 0.929 µM. Moreover, the TGI is greater than 25 µM in the assay with MALME-3M melanoma; greater than 25 µM in the assay with TK-10 renal; 4.16 µM in the assay on UO-31 renal; greater than 25 µM in the assay with SW-620 colon; 3.99 µM in the assay with SNB-19 CNS; greater than 25 µM in the assay on HCC-2998 colon. The values for the TGI with OVCAR-8 ovarian and in the assay with NCI-H226 lung were greater than 25 µM and 5.98 µM, respectively.

On to `C1=CC=C2NCCSCCNC3=CC=CC=CC3=NCCSCCN=C2C=C1`, for which the TGI in the assay with MALME-3M melanoma, in the assay with TK-10 renal, in the assay with UO-31 renal, in the assay on SW-620 colon, in the assay on SNB-19 CNS and in the assay with HCC-2998 colon was greater than 100 µM each time. The TGI with OVCAR-8 ovarian, with NCI-H226 lung and in the assay with M14 melanoma was greater than 100 µM each time.

For `O=C1Cc2ccccc2CCc2ccccc21`, the TGI with MALME-3M melanoma, in the assay on TK-10 renal, in the assay with UO-31 renal, in the assay with SW-620 colon, in the assay on SNB-19 CNS and with HCC-2998 colon was greater than 100 µM each time. For the same molecule, the TGI in the assay with OVCAR-8 ovarian, in the assay on NCI-H226 lung and in the assay with M14 melanoma was greater than 100 µM throughout.

For `CC1(C)Oc2ccccc2N2O[C@@H]3C(=O)N(c4ccccc4)C(=O)[C@@H]3C21c1ccccc1` (stereo not given in full), the TGI in the assay on MALME-3M melanoma is 42.5 µM; in the assay on TK-10 renal, 33.1 µM; with UO-31 renal it was greater than 100 µM; in the assay with SW-620 colon, greater than 100 µM; in the assay on SNB-19 CNS, 38.1 µM; in the assay on HCC-2998 colon it was greater than 100 µM. Also, the values for the TGI with NCI-H226 lung and in the assay on M14 melanoma were greater than 100 µM and 46.4 µM, respectively.

Take `CCCCOP1(=O)C=CC(Cl)=C(C)C1` (stereo not given): the TGI was 47.5 µM with MALME-3M melanoma; 75.1 µM in the assay on TK-10 renal; greater than 100 µM in the assay on UO-31 renal; 42.7 µM with SW-620 colon; greater than 100 µM with SNB-19 CNS; 51.3 µM in the assay on OVCAR-8 ovarian. The TGI with NCI-H226 lung was 41.9 µM; in the assay on M14 melanoma, greater than 100 µM.

For `O=c1ncccn1C1OC(CO)C(O)C1F` (stereo not given), the TGI in the assay on MALME-3M melanoma, in the assay with TK-10 renal, in the assay with UO-31 renal, in the assay on SW-620 colon, in the assay on SNB-19 CNS and with HCC-2998 colon was greater than 100 µM throughout. The TGI in the assay on OVCAR-8 ovarian, with NCI-H226 lung and with M14 melanoma was greater than 100 µM throughout. The GI50 with UO-31 renal and in the assay on SW-620 colon was greater than 100 µM throughout.
